Results: patent publication US20220016048A1, “CANNABIDIOL-TYPE CANNABINOID COMPOUND” (GW Research Limited, priority 2018, published 2022)

Assays:
[1] = tested on: sub-chronic PCP-induced deficit in social behaviour in female Lister-Hooded rats; assay: social interaction test in sub-chronic PCP treated rats; type: in vivo, rat
Experimental: The aim of the current study was to investigate the ability of CBD-C4 (3, 10 & 30 mg/kg IP; 60 min pre-treatment (ptt)) in comparison with risperidone (an atypical antipsychotic; 0.1 mg/kg IP; 60 min pre-treatment), to antagonise a sub-chronic PCP (scPCP; 2 mg/kg IP; twice daily for 7-days; 7 day wash out)-induced deficit in social behaviour in female Lister-Hooded rats.
180 female Lister Hooded rats were used for this experiment, of which 90 were used for the drug study and 90 weight-matched untreated conspecifics were used as the companion rat, and their behaviour was not scored.
Rats were housed in groups of 5 under standard laboratory conditions under a 12-hr light: dark cycle, lights on at 0700 hr. Testing was carried out in the light phase. These studies were carried out in accordance with the Animals Scientific Procedures Act (UK, 1986).
CBD-C4 was used at doses of (3, 10, 30 mg/kg, i.p.) and risperidone was used at a dose of 0.1 mg/kg, i.p.
Rats were randomly assigned to two treatment groups and treated with vehicle, n=15 (distilled water, i.p.) or PCP, n=75 (2 mg/kg, i.p. twice daily for 7-days). This was followed by a 7-day wash out period before the rats were tested following acute treatment with CBD-C4, risperidone or vehicle.
Risperidone (0.1 mg/kg) was dissolved in a minimum volume of acetic acid, made up to volume with distilled water and pH adjusted to 6 with 0.1M NaOH and administered via the i.p. route in a volume of 1 ml/kg, 60 min prior to testing.
CBD-C4 (3, 10 & 30 mg/kg) was dissolved in 2:1:17 (Ethanol:Cremophor EL:Saline 0.9%). CBD-C4 was administered via the i.p. route in a volume of 5 ml/kg, 60 min prior to testing.
The social interaction test was performed in an open-field comprising a square box made of Plexiglas (52×52×31 cm) placed 27 cm above the floor on a moveable trolley. The floor of the box was white with black gridlines forming 9 identical squares on it. All other walls were black. A video camera connected to a video recorder and monitor was positioned above the box. The object used for the test consists of a heavy structure made of metal that cannot be displaced by the animals.
After a 7 day drug-free period, the rats were habituated to the test environment and arena prior to the test day. Habituation consisted of placing all rats from one cage together in the empty test arena for one hour for three days including the day before the test day.
Pairs of rats, weight matched (15-20 g) and unfamiliar to each other, receiving either no treatment (n=90 “conspecific” rats) or different treatments (PCP; n=15 “tested” rats, Vehicle; n=15 “tested” rats, or PCP+drug; n=60 “tested” rats) were placed in the test arena together for 10 minutes and behavior assessed as described below.
An inanimate object such as an unopened drink can was also placed in the centre of the arena to measure any differences in interaction of the test animal with an unfamiliar animal as opposed to an unfamiliar object. After each 10-minute trial, the object and arena were cleaned with 10% alcohol in an attempt to remove traces of any olfactory cues. All testing was carried out under standard room illumination levels (70 cd/m^2).
Behaviour in both trials was recorded on video for subsequent blind scoring. A behavioural scoring software program (Hindsight, Scientific programming services) was used to score the following parameters:
Investigative sniffing behaviour: sniffing the conspecific's snout or parts of the body including the anogenital region.
Following: rat moves after the conspecific i.e. a vehicle treated rat of the same species, around the arena.
Avoidances: actively turning away when approached by the conspecific animal.
Investigation of object: exploration of object placed in centre of the arena.
Locomotor activity is recorded by counting the total number of sectors (i.e. lines) crossed by the test rat.
All data were assessed for normality using D'Agostino and Pearson normality test. […]

[2] = tested on: PCP-induced social behaviour deficit in female rats; details: background statement; cited from earlier work
[3] = tested on: mouse model of seizure; assay: maximal electroshock (MES) test in the mouse; type: in vivo; details: 2 mg/kg i.p. 30 minutes before MES; p<0.001
Experimental: Mice were administered MES (50 mA, rectangular current: 0.6 ms pulse width, 0.4 s duration, 50 Hz) via corneal electrodes connected to a constant current shock generator (Ugo Basile: type 7801). The number of tonic convulsions was recorded.
Twelve mice were studied per group. The test was performed blind.
The test substance, CBD-C4, was evaluated at 5 doses (3, 10, 30, 100 and 200 mg/kg), administered i.p. 60 minutes before MES, and compared with a vehicle control group (administered under the same experimental conditions).
Diazepam (2 mg/kg i.p.), administered i.p. 30 minutes before MES, was used as a reference substance and was compared with a vehicle group (administered i.p. 60 minutes before MES).
Data was analysed by comparing treated groups with the appropriate vehicle control using Fisher's Exact Probability tests.

[4] = 0.1 mg/kg i.p., 60 min pre-treatment
[5] = CBD-C4 3, 10, 30 mg/kg, risperidone 0.1 mg/kg i.p., data not shown

With `c1ccc(C2(N3CCCCC3)CCCCC2)cc1` [PCP, Phencyclidine] the “sniffing behaviour (scPCP vs vehicle)” value ([1]; PCP 2 mg/kg i.p. twice daily 7 days, 7-day wash out, P<0.001) was “significantly reduced”, the “following behaviour (scPCP vs vehicle)” value ([1]; PCP 2 mg/kg i.p. twice daily 7 days, 7-day wash out, P<0.01) was “significantly reduced” and the “increase in the duration of avoidance activity (scPCP vs vehicle)” value ([1]; PCP 2 mg/kg i.p. twice daily 7 days, 7-day wash out, P=0.058) was “just failed to reach statistical significance”.

For `O=C1CCc2ccc(OCCCCN3CCN(c4cccc(Cl)c4Cl)CC3)cc2N1` [aripiprazole], the “attenuation of PCP-induced social behaviour deficit” value (shortened to “attenuation”) [2] is given as “attenuated”.

In the case of `CN1C(=O)CN=C(c2ccccc2)c2cc(Cl)ccc21` [diazepam, Diazepam, reference compound], the “decrease in the number of tonic convulsions, as compared with vehicle controls” value [3] is reported as −75%.

For `CNCCC(Oc1ccc(C(F)(F)F)cc1)c1ccccc1` (stereo not shown) [fluoxetine], the “attenuation” value [2] is listed as “not attenuated”.

In the case of `O=C(CCCN1CCC(O)(c2ccc(Cl)cc2)CC1)c1ccc(F)cc1` [haloperidol], the “attenuation” value [2] is given as “not attenuated”.

For `Cc1nc2n(c(=O)c1CCN1CCC(c3noc4cc(F)ccc34)CC1)CCCC2` [risperidone], the “avoidance behaviour compared to the scPCP-treated group” value [1, 4] was “significantly decreased”, the following behaviour [1, 4] was “no significant effect” and the sniffing behaviour [1, 4] was “no significant effect”. For the same compound, the “line crossings (locomotor activity)” value [1, 5] was “no significant effect” and the object exploration [1, 5] was “no significant effect”.

For `O=C1Cc2cc(CCN3CCN(c4nsc5ccccc45)CC3)c(Cl)cc2N1` [ziprasidone], the “attenuation” value [2] is given as “attenuated”.
